Legend:
[1] = target: IRAK4 (Homo sapiens (Human), UniProt Q9NWZ3); assay: IRAK4 Inhibition Assay; type: biochemical; conditions: ATP 500 μM; IRAK4 0.6 nM
How it was run: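 Readout: electrophoretic (LabChip) separation of fluorescent peptide substrate from phosphorylated product after EDTA quench. Reactions ran 60 min at room temperature with 0.6 nM IRAK4, 1.5 μM peptide and 500 μM ATP; inhibition referenced to no-enzyme (100%) and vehicle (0%) controls.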

[2] = test system: Caco-2 cells; assay: Caco Permeability Assay; type: in vitro ADME; conditions: Caco-2 cells, 3 μM compound
[3] = test system: IL-6 levels in human whole blood stimulated with a TLR2 agonist; assay: IRAK4 Whole Blood Assay (lipoteichoic acid/TLR2-stimulated IL-6); type: cell-based; conditions: lipoteichoic acid 10 μg/mL, IL-6 readout
How it was run: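 IL-6 was quantified by cytometric bead assay in supernatants of human blood (ACD-A) stimulated for 5 h with lipoteichoic acid at 10 μg/mL final. Compound exposure preceded stimulation for 60 min at 37 °C, 5% CO2.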

[4] = Caco Permeability Assay; type: in vitro ADME; conditions: human, Caco-2, Caco-2 cells, 3 μM compound

IRAK4, sequence (Q9NWZ3 whole entry): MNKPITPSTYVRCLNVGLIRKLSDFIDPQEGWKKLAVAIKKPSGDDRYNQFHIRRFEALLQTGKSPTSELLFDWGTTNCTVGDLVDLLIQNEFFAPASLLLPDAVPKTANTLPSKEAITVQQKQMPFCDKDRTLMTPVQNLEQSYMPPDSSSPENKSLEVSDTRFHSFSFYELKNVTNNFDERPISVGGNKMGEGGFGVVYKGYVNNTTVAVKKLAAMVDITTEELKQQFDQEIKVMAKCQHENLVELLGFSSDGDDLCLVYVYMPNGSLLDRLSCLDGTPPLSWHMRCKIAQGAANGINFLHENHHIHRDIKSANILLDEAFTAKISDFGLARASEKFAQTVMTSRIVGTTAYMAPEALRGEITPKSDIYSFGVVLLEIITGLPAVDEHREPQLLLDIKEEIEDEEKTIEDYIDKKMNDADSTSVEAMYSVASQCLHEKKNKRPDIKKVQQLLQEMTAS

Row | SMILES | IC50 [1] | Caco-2 Permeability [2] | EC50 [3] | EC50 ([3]; Homo sapiens) | Papp at 2 h, 3 µM [4]
1 | CCCNc1cc(-c2cnn3cc(Cl)cnc23)ncc1C(=O)NC[C@@H](F)C(C)(C)O [Example 66, (R)-6-(6-chloropyrazolo[1,5-a]pyrimidin-3-yl)-N-(2-fluoro-3-hydroxy-3-methylbutyl)-4-(propylamino)nicotinamide] | 3 nM | 21.2 ×10⁻⁶ cm/s | – | – | –
2 | CC1(Nc2cc(-c3cnc4cc(Cl)cnn34)ncc2C(=O)NC[C@H](F)C(C)(C)O)CC1 [Example 207, (S)-6-(7-chloroimidazo[1,2-b]pyridazin-3-yl)-N-(2-fluoro-3-hydroxy-3-methylbutyl)-4-((1-methylcyclopropyl)amino)nicotinamide] | – | 9.7 ×10⁻⁶ cm/s | 260 nM | – | –
3 | CCCNc1cc(-c2cnn3cc(Cl)cnc23)ncc1C(=O)NC[C@@H](F)C(C)(C)O [Example 159, (R)-6-(6-chloropyrazolo[1,5-a]pyrimidin-3-yl)-N-(2-fluoro-3-hydroxy-3-methylbutyl)-4-(propylamino)nicotinamide] | – | 9.5 ×10⁻⁶ cm/s | – | 1000 nM | –
4 | CC(C)(O)[C@H](F)CNC(=O)c1cnc(-c2cnn3cc(C#N)cnc23)cc1Nc1cnn(CC(F)(F)F)c1 [Example 241, (R)-6-(6-cyanopyrazolo[1,5-a]pyrimidin-3-yl)-N-(2-fluoro-3-hydroxy-3-methylbutyl)-4-((1-(2,2,2-trifluoroethyl)-1H-pyrazol-4-yl)amino)nicotinamide] | 2 nM | <1.5 ×10⁻⁶ cm/s | 130 nM | – | –
5 | CC(C)(O)[C@H](F)CNC(=O)c1cnc(-c2cnn3cc(Cl)cnc23)cc1NC1CCC(F)C1 (stereo partly drawn) [Example 84, 6-(6-chloropyrazolo[1,5-a]pyrimidin-3-yl)-N—((R)-2-fluoro-3-hydroxy-3-methylbutyl)-4-((3-fluorocyclopentyl)amino)nicotinamide] | 2 nM | 12 ×10⁻⁶ cm/s | 320 nM | – | –
6 | CC(C)(O)[C@H](F)CNC(=O)c1cnc(-c2cnn3cc(Cl)cnc23)cc1NCCC(F)(F)F [Example 46, (R)-6-(6-chloropyrazolo[1,5-a]pyrimidin-3-yl)-N-(2-fluoro-3-hydroxy-3-methylbutyl)-4-((3,3,3-trifluoropropyl)amino) nicotinamide] | 5 nM | 24.1 ×10⁻⁶ cm/s | 1970 nM | – | –
7 | CC(C)(O)[C@H](F)CNC(=O)c1cnc(-c2cnn3cc(Cl)cnc23)cc1NC1CCC(F)C1 (stereo partly drawn) [Example 83, 6-(6-chloropyrazolo[1,5-a]pyrimidin-3-yl)-N—((R)-2-fluoro-3-hydroxy-3-methylbutyl)-4-((3-fluorocyclopentyl)amino)nicotinamide] | 1 nM | – | 810 nM | – | 15.9 ×10⁻⁶ cm/s
8 | CNC(=O)c1ccc(Nc2cc(-c3cnn4cc(C#N)cnc34)ncc2C(=O)NC[C@@H](F)C(C)(C)O)cc1 [Example 110, (R)-6-(6-cyanopyrazolo[1,5-a]pyrimidin-3-yl)-N-(2-fluoro-3-hydroxy-3-methylbutyl)-4-((4-(methylcarbamoyl)phenyl)amino) nicotinamide] | 3 nM | – | – | 270 nM | < 1.5 ×10⁻⁶ cm/s
9 | Cc1cnn2c(-c3cc(NC4CCC4)c(C(=O)NC[C@@H](F)C(C)(C)O)cn3)cnc2c1 [Example 185, (R)-4-(cyclobutylamino)-N-(2-fluoro-3-hydroxy-3-methylbutyl)-6-(7-methylimidazo[1,2-b]pyridazin-3-yl)nicotinamide] | 7 nM | – | – | 820 nM | 4.7 ×10⁻⁶ cm/s
10 | CC(C)(O)[C@H](F)CNC(=O)c1cnc(-c2cnc3cc(Cl)cnn23)cc1NCCC(F)(F)F [Example 190, (R)-6-(7-chloroimidazo[1,2-b]pyridazin-3-yl)-N-(2-fluoro-3-hydroxy-3-methylbutyl)-4-((3,3,3-trifluoropropyl)amino)nicotinamide] | 6 nM | – | – | 610 nM | 15.3 ×10⁻⁶ cm/s
11 | CC(C)(O)[C@H](F)CNC(=O)c1cnc(-c2cnn3cc(Cl)cnc23)cc1NC1COC1 [Example 5, (R)-6-(6-chloropyrazolo[1,5-a]pyrimidin-3-yl)-N-(2-fluoro-3-hydroxy-3-methylbutyl)-4-(oxetan-3-ylamino)nicotinamide] | 3 nM | – | – | 100 nM | 17.5 ×10⁻⁶ cm/s

Next, values leading:

Row | IC50 [1] | Caco-2 Permeability [2] | EC50 [3] | EC50 ([3]; Homo sapiens) | Papp at 2 h, 3 µM [4] | SMILES
12 | 2 nM | – | – | 490 nM | 3.6 ×10⁻⁶ cm/s | CC(C)(O)[C@H](F)CNC(=O)c1cnc(-c2cnc3cc(Cl)cnn23)cc1Nc1cnn(C2CC(F)(F)C2)c1 [Example 277, (R)-6-(7-chloroimidazo[1,2-b]pyridazin-3-yl)-4-((1-(3,3-difluorocyclobutyl)-1H-pyrazol-4-yl)amino)-N-(2-fluoro-3-hydroxy-3-methylbutyl)nicotinamide]
13 | 1 nM | – | – | 160 nM | 4.8 ×10⁻⁶ cm/s | CC(C)(O)CCNC(=O)c1cnc(-c2cnn3cc(Cl)cnc23)cc1Nc1cnn(CC(F)F)c1 [Example 253, 6-(6-chloropyrazolo[1,5-a]pyrimidin-3-yl)-4-((1-(2,2-difluoroethyl)-1H-pyrazol-4-yl)amino)-N-(3-hydroxy-3-methylbutyl)nicotinamide]
14 | 2 nM | – | – | 440 nM | < 1.5 ×10⁻⁶ cm/s | CC(F)(F)Cn1cc(Nc2cc(-c3cnc4cc(C#N)cnn34)ncc2C(=O)NC[C@@H](F)C(C)(C)O)cn1 [Example 265, (R)-6-(7-cyanoimidazo[1,2-b]pyridazin-3-yl)-4-((1-(2,2-difluoropropyl)-1H-pyrazol-4-yl)amino)-N-(2-fluoro-3-hydroxy-3-methylbutyl)nicotinamide]
15 | 2 nM | – | – | 210 nM | < 1.5 ×10⁻⁶ cm/s | CC(C)(O)[C@H](F)CNC(=O)c1cnc(-c2cnc3cc(C#N)cnn23)cc1Nc1cnn(C2CC2)c1 [Example 284, (R)-6-(7-cyanoimidazo[1,2-b]pyridazin-3-yl)-4-((1-cyclopropyl-1H-pyrazol-4-yl)amino)-N-(2-fluoro-3-hydroxy-3-methylbutyl)nicotinamide]
16 | 2 nM | – | – | 370 nM | < 1.5 ×10⁻⁶ cm/s | CC(C)(O)[C@H](F)CNC(=O)c1cnc(-c2cnn3cc(C#N)cnc23)cc1Nc1cnn(C2CC2)c1 [Example 248, (R)-6-(6-cyanopyrazolo[1,5-a]pyrimidin-3-yl)-4-((1-cyclopropyl-1H-pyrazol-4-yl)amino)-N-(2-fluoro-3-hydroxy-3-methylbutyl)nicotinamide]

From patent US10618903B2, “Heteroaryl substituted aminopyridine compounds” (BRISTOL-MYERS SQUIBB COMPANY, priority 2015, dated 2020)
